Source: patent publication US9725414B2, “Fungicidal N-bicycloalkyl and N-tricycloalkyl pyrazole-4-(thio)carboxamide derivatives” (priority 2011, dated 2017)

Key:
Pyrenophora teres [1] = assay: Example E: in vivo preventive test on Pyrenophora teres (barley), DMF/emulsifier preparation; conditions: 500 ppm of active ingredient, evaluated 7-9 days after inoculation
Experimental: In Vivo Preventive Test on Pyrenophora teres (Barley) Solvent: 49 parts by weight of N,N-dimethylformamide Emulsifier: 1 part by weight of alkylaryl polyglycol ether To produce a suitable preparation of active compound, 1 part by weight of active compound is mixed with the stated amounts of solvent and emulsifier, and the concentrate is diluted with water to the desired concentration. To test for preventive activity, young plants are sprayed with the preparation of active compound at the stated rate of application. One day after this treatment, the plants are inoculated with an aqueous spore suspension of Pyrenophora teres. The plants remain for 48 hours in an incubation cabinet at 22° C. and a relative atmospheric humidity of 100%.

Sphaerotheca fuliginea = assay: Example B: in vivo preventive test on Sphaerotheca fuliginea (powdery mildew on cucurbits), gherkin plants; conditions: 500 ppm of active ingredient, grading 12 days after contamination
Experimental: In Vivo Preventive Test on Sphaerotheca fuliginea (Powdery Mildew on Cucurbits) […] Gherkin plants (“Vert petit de Paris” variety), sown in starter cups on a 50/50 peat soil-pozzolana substrate and grown at 24° C. are treated at the Z11 cotyledon stage by spraying with the active ingredient prepared as described above. Plants, used as controls, are treated with the mixture of acetone/tween/DMSO/water not containing the active material. After 24 hours, the plants are contaminated by spraying the cotyledons with an aqueous suspension of Sphaerotheca fuliginea spores (100 000 spores per mL). The spores are collected from infected plants.

Alternaria solani = assay: Example C: in vivo preventive test on Alternaria solani (tomato); conditions: 500 ppm of active ingredient, evaluated 7 days after inoculation
Experimental: In Vivo Preventive Test on Alternaria solani (Tomato) Solvent: 49 parts by weight of N,N-dimethylformamide Emulsifier: 1 part by weight of alkylarylpolyglycolether To produce a suitable preparation of active compound, 1 part by weight of active compound is mixed with the stated amounts of solvent and emulsifier, and the concentrate is diluted with water to the desired concentration. To test for preventive activity, young plants are sprayed with the preparation of active compound at the stated rate of application. One day after this treatment, the plants are inoculated with an aqueous spore suspension of Alternaria solani. The plants remain for one day in an incubation cabinet at approximately 22° C. and a relative atmospheric humidity of 100%. Then the plants are placed in an incubation cabinet at approximately 20° C. and a relative atmospheric humidity of 96%.

Septoria tritici = assay: Example I: in vivo preventive test on Septoria tritici (wheat), acetone/tween/DMSO preparation; conditions: 500 ppm of active ingredient, grading 24 days after contamination
Experimental: In Vivo Preventive Test on Septoria tritici (Wheat) […] Wheat plants (“Scipion” variety), sown in starter cups on a 50/50 peat soil pozzolana substrate and grown at 22° C., are treated at the 1 leaf stage (10 cm height) by spraying with the active ingredient prepared as described above. Plants, used as controls, are treated with the mixture of acetone/tween/DMSO/water not containing the active material. After 24 hours, the plants are contaminated by spraying the leaves with an aqueous suspension of cryopreserved Septoria tritici spores (500 000 spores per mL). The contaminated wheat plants are incubated for 72 hours at 18° C. and at 100% relative humidity, and then for 21 days at 90% relative humidity. Grading (% of efficacy) is carried out 24 days after the contamination, in comparison with the control plants.

Alternaria brassicae = assay: Example D: in vivo preventive test on Alternaria brassicae (leaf spot on radish); conditions: 500 ppm of active ingredient, grading 6 days after contamination
Experimental: In Vivo Preventive Test on Alternaria brassicae (Leaf Spot on Radish) […] Radish plants (“Pernod Clair” variety), sown in starter cups on a 50/50 peat soil pozzolana substrate and grown at 17° C., are treated at the cotyledon stage by spraying with the active ingredient prepared as described above. Plants, used as controls, are treated with the mixture of acetone/tween/DMSO/water not containing the active material. After 24 hours, the plants are contaminated by spraying the cotyledons with an aqueous suspension of Alternaria brassicae spores (50 000 spores per mL). The spores are collected from a 15-day-old culture. The contaminated radish plants are incubated at 20° C. and at 100% relative humidity. Grading (% of efficacy) is carried out 6 days after the contamination, in comparison with the control plants.

Puccinia recondita = assay: Example M: in vivo preventive test on Puccinia recondita (brown rust on wheat); conditions: 500 ppm of active ingredient, grading 12 days after contamination
Experimental: In Vivo Preventive Test on Puccinia recondita (Brown Rust on Wheat) […] Wheat plants (“Scipion” variety), sown in starter cups on a 50/50 peat soil pozzolana substrate and grown at 22° C., are treated at the 1 leaf stage (10 cm height) by spraying with the active ingredient prepared as described above. Plants, used as controls, are treated with the mixture of acetone/tween/DMSO/water not containing the active material. After 24 hours, the plants are contaminated by spraying the leaves with an aqueous suspension of Puccinia recondite spores (100 000 spores per mL). The spores are collected from an infected plant and are suspended in water containing 2.5 mL/L of Tween 80 at 10%. […] Grading (% of efficacy) is carried out 12 days after the contamination, in comparison with the control plants.

Uromyces appendiculatus = assay: Example Q: in vivo preventive test on Uromyces appendiculatus (bean rust); conditions: Uromyces appendiculatus on bean plants, 500 ppm of active ingredient, grading 11 days after contamination
Experimental: In Vivo Preventive Test on Uromyces appendiculatus (Bean Rust) […] Bean plants (“Saxa” variety), sown in starter cups on a 50/50 peat soil pozzolana substrate and grown at 24° C., are treated at the 2 leaf stage (9 cm height) by spraying with the active ingredient prepared as described above. Plants, used as controls, are treated with the mixture of acetone/tween/DMSO/water not containing the active material. After 24 hours, the plants are contaminated by spraying the leaves with an aqueous suspension of Uromyces appendiculatus spores (150 000 spores per mL). The spores are collected from infected plants and are suspended in water containing 2.5 mL/L of Tween 80 at 10%. […] Grading (% of efficacy) is carried out 11 days after the contamination, in comparison with the control plants.

Botrytis cinerea = assay: Example P: in vivo preventive test on Botrytis cinerea (grey mould), gherkin plants; conditions: 500 ppm of active ingredient, grading 4 to 5 days after contamination
Experimental: In Vivo Preventive Test on Botrytis cinerea (Grey Mould) […] Gherkin plants (“Vert petit de Paris” variety), sown in starter cups on a 50/50 peat soil pozzolana substrate and grown at 24° C. are treated at the Z11 cotyledon stage by spraying with the active ingredient prepared as described above. Plants, used as controls, are treated with the mixture of acetone/tween/DMSO/water not containing the active material. After 24 hours, the plants are contaminated by spraying the cotyledons with an aqueous suspension of cryopreserved Botrytis cinerea spores (50 000 spores per mL). The spores are suspended in a nutrient solution composed of 10 g/L of PDB, 50 g/L of D-Fructose, 2 g/L of NH4NO3 and 1 g/L of KH2PO4. The contaminated gherkin plants are incubated at 17° C. and at 90% relative humidity. Grading (% of efficacy) is carried out 4 to 5 days after the contamination, in comparison with the control plants.

Pyrenophora teres [2] = assay: Example F: in vivo preventive test on Pyrenophora teres (barley), acetone/tween/DMSO preparation; conditions: 500 ppm of active ingredient, barley, grading 14 days after contamination
Experimental: In Vivo Preventive Test on Pyrenophora teres (Barley) […] Barley plants (“Plaisant” variety), sown in starter cups on a 50/50 peat soil pozzolana substrate and grown at 22° C., are treated at the 1 leaf stage (10 cm height) by spraying with the active ingredient prepared as described above. Plants, used as controls, are treated with the mixture of acetone/tween/DMSO/water not containing the active material. After 24 hours, the plants are contaminated by spraying the leaves with an aqueous suspension of Pyrenophora teres spores (12 000 spores per mL). The spores are collected from a 12-day-old culture. […] Grading (% of efficacy) is carried out 14 days after the contamination, in comparison with the control plants.

[3] = log P by HPLC on reversed-phase column (C 18), EEC Directive 79831 Annex V.A8; format: physicochemical; conditions: HPLC reversed-phase C 18, 40° C., 0.1% aqueous formic acid and acetonitrile gradient; several values = mixture of two or more isomers
Experimental: In table 1, the log P values were determined in accordance with EEC Directive 79831 Annex V.A8 by HPLC (High Performance Liquid Chromatography) on a reversed-phase column (C 18), using the method described below: Temperature: 40° C.; Mobile phases: 0.1% aqueous formic acid and acetonitrile; linear gradient from 10% acetonitrile to 90% acetonitrile. Calibration was carried out using unbranched alkan-2-ones (comprising 3 to 16 carbon atoms) with known log P values (determination of the log P values by the retention times using linear interpolation between two successive alkanones). lambda-max-values were determined using UV-spectra from 200 nm to 400 nm and the peak values of the chromatographic signals.

Row | logP [3] | Compound | Efficacy (Pyrenophora teres [1]) [%] | Efficacy (Sphaerotheca fuliginea) [%] | Efficacy (Alternaria solani) [%] | Efficacy (Septoria tritici) [%] | Efficacy (Alternaria brassicae) [%] | Efficacy (Puccinia recondita) [%] | Efficacy (Uromyces appendiculatus) [%] | Efficacy (Botrytis cinerea) [%] | Efficacy (Pyrenophora teres [2]) [%]
1 |  | Cn1nc(C(F)F)c(C(=O)N(C2CC2)C2CCC3CCCC3C2)c1F (mixture of isomers) [Example 22] | 100 | 100 | 100 | 88 | 93 | 100 | 100 |  | 
2 |  | CC(C1CC2C=CC1C2)N(C(=O)c1c(C(F)F)nn(C)c1F)C1CC1 (mixture of isomers) [Example 101] |  | 100 |  | 100 | 92 |  |  | 98 | 100
3 |  | CC(C1CC2C=CC1C2)N(C(=O)c1cn(C)nc1C(F)F)C1CC1 (mixture of isomers) [Example 102] |  | 100 |  | 75 | 92 | 90 | 92 | 95 | 100
4 | 3.09 | Cn1nc(C(F)F)c(C(=O)NC2CCC3CCCC32)c1Cl (centres unmarked) [Example 3] |  |  |  | 92 | 90 | 75 | 100 | 95 | 
5 | 3.55 | Cn1nc(C(F)F)c(C(=O)N(C2CC2)C2CCC3CCCC32)c1F (centres unmarked) [Example 4] |  |  |  |  | 100 | 78 |  | 80 | 100
6 | 3.65 | Cn1nc(C(F)F)c(C(=O)N(C2CC2)C2CCC3CCCC32)c1F (centres unmarked) [Example 5] |  | 98 |  | 100 | 100 | 100 | 100 |  | 97
7 | 3.02 | Cn1cc(C(=O)N(C2CC2)C2CCC3CCCC32)c(C(F)F)n1 (centres unmarked) [Example 6] |  | 100 |  |  | 100 |  | 77 | 100 | 100
8 | 3.19 | Cn1cc(C(=O)N(C2CC2)C2CCC3CCCC32)c(C(F)F)n1 (centres unmarked) [Example 7] |  | 100 |  | 97 | 80 | 98 | 94 |  | 100
9 | 3.72 | CON(C(=O)c1c(C(F)F)nn(C)c1F)C1CCC2CCCCC21 (centres unmarked) [Example 10] |  | 100 |  | 93 | 100 | 100 | 100 |  | 93
10 | 4.68 | Cn1nc(C(F)F)c(C(=O)N(C2CC2)C2CCCC3CCCCC32)c1Cl (centres unmarked) [Example 32] |  | 100 |  | 80 | 100 | 98 | 89 |  | 97
11 | 3.61 | CC1C(NC(=O)c2c(C(F)F)nn(C)c2F)CC2CC1C2(C)C (centres unmarked) [Example 49] |  |  |  |  | 96 |  |  | 98 | 88
12 | 3.61 | CC1C(NC(=O)c2c(C(F)F)nn(C)c2F)CC2CC1C2(C)C (centres unmarked) [Example 50] |  | 90 |  | 97 | 80 |  |  | 99 | 88
13 | 5.08 | Cn1nc(C(F)F)c(C(=O)N(CC2CCCC3CCCCC32)C2CC2)c1Cl (centres unmarked) [Example 67] |  | 100 |  | 94 | 97 | 97 | 87 |  | 98
14 | 4.32 | Cn1cc(C(=O)N(CC2(Cc3ccccc3)CC3CCC2C3)C2CC2)c(C(F)F)n1 (centres unmarked) [Example 70] |  | 98 |  | 96 | 91 |  | 88 | 100 | 79
15 | 3.68 | Cn1nc(C(F)F)c(C(=O)NCC2C3CC4CC(C3)CC2C4)c1F (centres unmarked) [Example 90] |  |  |  | 92 | 90 |  |  | 100 | 81
16 | 3.90 | Cn1nc(C(F)F)c(C(=O)NCC2C3CC4CC(C3)CC2C4)c1Cl (centres unmarked) [Example 91] |  |  |  |  | 96 |  |  | 99 | 75
17 | 3.27 | Cn1cc(C(=O)NCC2C3CC4CC(C3)CC2C4)c(C(F)F)n1 (centres unmarked) [Example 92] |  |  |  | 83 | 96 |  |  | 100 | 
